Data as given in PubChem BioAssay AID328 (DTP/NCI, 2004).
Several values for one entry are separate records, joined by “and”; a condition that tells them apart may be missing. Equal entries are not always repeated. Inconclusive results and toxic doses are left out.

Tested on: BDF1 mice, P388 leukemia ip, median survival T/C
Experiment: NCI In Vivo Anticancer Drug Screen. Data for tumor model P388 Leukemia (intraperitoneal) in B6D2F1 (BDF1) mice
Details: endpoint: median survival time, higher = longer survival
In short: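 Transplantable tumour in mice; compound vs vehicle dosing; survival scored; ratio of treated to control reported.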

[1] = dose: 100.0 mg/kg/injection, schedule: Q01DX009 (ip), vehicle: Klucel (hydroxypropylcellulose) (HPC)
[2] = dose: 100.0 mg/kg/injection, schedule: Q04DX003 (ip), vehicle: Klucel (hydroxypropylcellulose) (HPC)
[3] = dose: 200.0 mg/kg/injection, schedule: Q01DX009 (ip), vehicle: Klucel (hydroxypropylcellulose) (HPC)
[4] = dose: 25.0 mg/kg/injection, schedule: Q01DX009 (ip), vehicle: saline with Tween-80
[5] = dose: 50.0 mg/kg/injection, schedule: Q01DX009 (ip), vehicle: saline with Tween-80
[6] = dose: 100.0 mg/kg/injection, schedule: Q01DX009 (ip), vehicle: saline with Tween-80
[7] = dose: 50.0 mg/kg/injection, schedule: Q04DX003 (ip), vehicle: saline
[8] = dose: 100.0 mg/kg/injection, schedule: Q04DX003 (ip), vehicle: saline
[9] = dose: 200.0 mg/kg/injection, schedule: Q04DX003 (ip), vehicle: saline
[10] = dose: 12.5 mg/kg/injection, schedule: Q01DX009 (ip), vehicle: water
[11] = dose: 25.0 mg/kg/injection, schedule: Q01DX009 (ip), vehicle: water

Question: Which T/C (dose: 0.06 mg/kg/injection, schedule: Q01DX009 (ip), vehicle: saline) does the source give for `c1ccc([P+](c2ccccc2)(c2ccccc2)c2ccccc2)cc1` here?
Answer: 116 % of control

Question: And the T/C (dose: 0.09 mg/kg/injection, schedule: Q01DX009 (ip), vehicle: saline)?
Answer: 122 % of control

Question: And the T/C (dose: 0.13 mg/kg/injection, schedule: Q01DX009 (ip), vehicle: saline)?
Answer: 100 % of control

Question: And the T/C (dose: 0.2 mg/kg/injection, schedule: Q01DX009 (ip), vehicle: saline)?
Answer: 100 % of control

Question: What about the T/C (dose: 0.3 mg/kg/injection, schedule: Q01DX009 (ip), vehicle: saline) of the same molecule?
Answer: 104 % of control

Question: And the T/C (dose: 0.4 mg/kg/injection, schedule: Q01DX009 (ip), vehicle: saline)?
Answer: 150 % of control

Question: What about the T/C (dose: 0.41 mg/kg/injection, schedule: Q01DX009 (ip), vehicle: saline) of the same molecule?
Answer: 165 % of control

Question: And the T/C (dose: 0.44 mg/kg/injection, schedule: Q01DX009 (ip), vehicle: saline)?
Answer: 120 % of control

Question: What about the T/C (dose: 0.62 mg/kg/injection, schedule: Q01DX009 (ip), vehicle: saline) of the same molecule?
Answer: 150 % of control and 163 % of control and 170 % of control

Question: What about the T/C (dose: 0.66 mg/kg/injection, schedule: Q01DX009 (ip), vehicle: saline) of the same molecule?
Answer: 171 % of control

Question: And the T/C (dose: 0.67 mg/kg/injection, schedule: Q04DX003 (ip), vehicle: saline)?
Answer: 118 % of control

Question: What about the T/C (dose: 0.93 mg/kg/injection, schedule: Q01DX009 (ip), vehicle: saline) of the same molecule?
Answer: 150 % of control and 165 % of control

Question: And the T/C (dose: 1.0 mg/kg/injection, schedule: Q01DX009 (ip), vehicle: Klucel (hydroxypropylcellulose) (HPC))?
Answer: 155 % of control

Question: What about the T/C (dose: 1.0 mg/kg/injection, schedule: Q01DX009 (ip), vehicle: saline) of the same molecule?
Answer: 180 % of control

Question: And the T/C (dose: 1.35 mg/kg/injection, schedule: Q04DX003 (ip), vehicle: saline)?
Answer: 122 % of control

Question: And the T/C (dose: 1.5 mg/kg/injection, schedule: Q01DX009 (ip), vehicle: Klucel (hydroxypropylcellulose) (HPC))?
Answer: 158 % of control

Question: What about the T/C (dose: 1.5 mg/kg/injection, schedule: Q01DX009 (ip), vehicle: saline) of the same molecule?
Answer: 154 % of control and 164 % of control

Question: What about the T/C (dose: 2.0 mg/kg/injection, schedule: Q01DX009 (ip), vehicle: Klucel (hydroxypropylcellulose) (HPC)) of the same molecule?
Answer: 157 % of control and 163 % of control

Question: And the T/C (dose: 2.25 mg/kg/injection, schedule: Q01DX009 (ip), vehicle: saline)?
Answer: 164 % of control

Question: What about the T/C (dose: 3.2 mg/kg/injection, schedule: Q01DX009 (ip), vehicle: Klucel (hydroxypropylcellulose) (HPC)) of the same molecule?
Answer: 175 % of control

Question: And the T/C (dose: 4.0 mg/kg/injection, schedule: Q01DX009 (ip), vehicle: Klucel (hydroxypropylcellulose) (HPC))?
Answer: 164 % of control

Question: And the T/C (dose: 4.0 mg/kg/injection, schedule: Q04DX003 (ip), vehicle: saline)?
Answer: 158 % of control and 165 % of control

Question: And the T/C (dose: 7.5 mg/kg/injection, schedule: Q01DX009 (ip), vehicle: Klucel (hydroxypropylcellulose) (HPC))?
Answer: 89 % of control and 100 % of control

Question: What does the source list for `COc1ccc(-c2nnc(C)nc2-c2ccc(OC)cc2)cc1`?
Answer: T/C (dose: 50.0 mg/kg/injection, schedule: Q01DX005 (ip), vehicle: saline with Tween-80): 96 % of control; T/C (dose: 100.0 mg/kg/injection, schedule: Q01DX005 (ip), vehicle: saline with Tween-80): 106 % of control; T/C (dose: 200.0 mg/kg/injection, schedule: Q01DX005 (ip), vehicle: saline with Tween-80): 100 % of control

Question: For `COc1cc(NS(C)(=O)=O)ccc1N`, which T/C [1] is on record?
Answer: 100 % of control

Question: What about the T/C [2] of the same molecule?
Answer: 100 % of control

Question: What about the T/C [3] of the same molecule?
Answer: 90 % of control

Question: What does the source list for `O=C(O)c1cc(C(=O)O)cc([N+](=O)[O-])c1`?
Answer: T/C [4]: 100 % of control; T/C [5]: 100 % of control; T/C [6]: 90 % of control

Question: Which T/C (dose: 25.0 mg/kg/injection, schedule: Q04DX003 (ip), vehicle: saline) does the source give for `CCOC(=O)/C=C(/CC(=O)OCC)OCC` here?
Answer: 106 % of control

Question: And the T/C [7]?
Answer: 100 % of control

Question: And the T/C [8]?
Answer: 115 % of control

Question: And the T/C [9]?
Answer: 106 % of control

Question: What about the T/C (dose: 400.0 mg/kg/injection, schedule: Q04DX003 (ip), vehicle: saline) of the same molecule?
Answer: 112 % of control

Question: What does the source list for `CCCCCCCC(=O)N/N=C(\CO)[C@]1(O)Cc2c(O)c3c(c(O)c2[C@@H](OC2CC(N)C(O)C(C)O2)C1)C(=O)c1c(OC)cccc1C3=O` (stereo partly drawn)?
Answer: T/C (dose: 0.78 mg/kg/injection, schedule: Q01DX009 (ip), vehicle: water): 114 % of control; T/C (dose: 1.56 mg/kg/injection, schedule: Q01DX009 (ip), vehicle: water): 183 % of control; T/C (dose: 3.12 mg/kg/injection, schedule: Q01DX009 (ip), vehicle: water): 106 % of control and 222 % of control; T/C (dose: 6.25 mg/kg/injection, schedule: Q01DX009 (ip), vehicle: water): 163 % of control and 200 % of control; T/C [10]: 117 % of control and 204 % of control; T/C [11]: 104 % of control

Question: With `O=C(O)Cc1ccc(C2CCCCC2)cc1` as the molecule, how does the T/C [1] read?
Answer: 91 % of control and 95 % of control

Question: What about the T/C [3] of the same molecule?
Answer: 90 % of control

Question: What about the T/C (dose: 400.0 mg/kg/injection, schedule: Q01DX009 (ip), vehicle: Klucel (hydroxypropylcellulose) (HPC)) of the same molecule?
Answer: 90 % of control and 100 % of control

Question: How did the T/C (dose: 12.5 mg/kg/injection, schedule: Q04DX003 (ip), vehicle: saline with Tween-80) turn out when `ClCC1CNC(c2ccccc2)O1` (stereo not drawn) was run?
Answer: 101 % of control

Question: And the T/C (dose: 25.0 mg/kg/injection, schedule: Q04DX003 (ip), vehicle: saline with Tween-80)?
Answer: 104 % of control

Question: How did the T/C [4] turn out when `CCOC(=O)CCCN(c1[nH]c(C)c(C)c1C#N)S(=O)(=O)c1ccc(C)cc1` was run?
Answer: 109 % of control

Question: And the T/C [5]?
Answer: 100 % of control

Question: What about the T/C [6] of the same molecule?
Answer: 113 % of control

Question: And the T/C (dose: 200.0 mg/kg/injection, schedule: Q01DX009 (ip), vehicle: saline with Tween-80)?
Answer: 104 % of control

Question: And the T/C (dose: 200.0 mg/kg/injection, schedule: Q04DX003 (ip), vehicle: saline with Tween-80)?
Answer: 87 % of control

Question: And the T/C (dose: 400.0 mg/kg/injection, schedule: Q04DX003 (ip), vehicle: saline with Tween-80)?
Answer: 95 % of control

Question: `NC(CSC(c1ccccc1)(c1ccccc1)c1ccc2ccccc2c1)C(=O)O` (stereo not drawn) was tested. Which T/C (dose: 2.75 mg/kg/injection, schedule: Q01DX009 (ip), vehicle: saline) did it give?
Answer: 173 % of control

Question: And the T/C (dose: 4.12 mg/kg/injection, schedule: Q01DX009 (ip), vehicle: saline)?
Answer: 227 % of control

Question: And the T/C (dose: 6.25 mg/kg/injection, schedule: Q01DX009 (ip), vehicle: saline)?
Answer: 250 % of control

Question: And the T/C (dose: 12.5 mg/kg/injection, schedule: Q01DX009 (ip), vehicle: Klucel (hydroxypropylcellulose) (HPC))?
Answer: 216 % of control

Question: What about the T/C (dose: 12.5 mg/kg/injection, schedule: Q01DX009 (ip), vehicle: saline) of the same molecule?
Answer: 89 % of control

Question: What about the T/C (dose: 25.0 mg/kg/injection, schedule: Q01DX009 (ip), vehicle: Klucel (hydroxypropylcellulose) (HPC)) of the same molecule?
Answer: 333 % of control

Question: And the T/C (dose: 25.0 mg/kg/injection, schedule: Q04DX003 (ip), vehicle: Klucel (hydroxypropylcellulose) (HPC))?
Answer: 210 % of control

Question: And the T/C (dose: 29.0 mg/kg/injection, schedule: Q04DX003 (ip), vehicle: saline)?
Answer: 200 % of control

Question: What about the T/C (dose: 45.0 mg/kg/injection, schedule: Q04DX003 (ip), vehicle: saline) of the same molecule?
Answer: 86 % of control

Question: What about the T/C (dose: 50.0 mg/kg/injection, schedule: Q01DX009 (ip), vehicle: Klucel (hydroxypropylcellulose) (HPC)) of the same molecule?
Answer: 200 % of control

Question: What about the T/C (dose: 50.0 mg/kg/injection, schedule: Q04DX003 (ip), vehicle: Klucel (hydroxypropylcellulose) (HPC)) of the same molecule?
Answer: 200 % of control

Question: And the T/C [7]?
Answer: 300 % of control

Question: And the T/C (dose: 66.0 mg/kg/injection, schedule: Q04DX003 (ip), vehicle: saline)?
Answer: 272 % of control

Question: And the T/C [2]?
Answer: 300 % of control

Question: And the T/C [8]?
Answer: 300 % of control and 154 % of control

Question: What about the T/C [9] of the same molecule?
Answer: 95 % of control

Question: `CC(C)OC(=S)SSc1nc2ccccc2s1` was tested. Which T/C (dose: 9.37 mg/kg/injection, schedule: Q01DX009 (ip), vehicle: saline) did it give?
Answer: 115 % of control

Question: What about the T/C (dose: 18.75 mg/kg/injection, schedule: Q01DX009 (ip), vehicle: saline) of the same molecule?
Answer: 110 % of control

Question: And the T/C (dose: 75.0 mg/kg/injection, schedule: Q01DX009 (ip), vehicle: saline with Tween-80)?
Answer: 112 % of control

Question: `CC1(O)Cn2c(nc3nccnc32)S1` (stereo not drawn) was tested. Which T/C (dose: 25.0 mg/kg/injection, schedule: Q01DX009 (ip), vehicle: saline) did it give?
Answer: 107 % of control

Question: And the T/C (dose: 50.0 mg/kg/injection, schedule: Q01DX009 (ip), vehicle: saline)?
Answer: 115 % of control

Question: What about the T/C [7] of the same molecule?
Answer: 108 % of control

Question: And the T/C [8]?
Answer: 100 % of control

Question: Which T/C (dose: 2.0 mg/kg/injection, schedule: Q01DX009 (ip), vehicle: water) does the source give for `CC(=O)C(C)[P+](c1ccccc1)(c1ccccc1)c1ccccc1` (stereo not drawn) here?
Answer: 95 % of control

Question: And the T/C (dose: 4.0 mg/kg/injection, schedule: Q01DX009 (ip), vehicle: water)?
Answer: 100 % of control

Question: And the T/C (dose: 8.0 mg/kg/injection, schedule: Q01DX009 (ip), vehicle: water)?
Answer: 93 % of control

Question: What about the T/C [10] of the same molecule?
Answer: 96 % of control

Question: And the T/C (dose: 16.0 mg/kg/injection, schedule: Q01DX009 (ip), vehicle: water)?
Answer: 103 % of control

Question: What about the T/C [11] of the same molecule?
Answer: 91 % of control
